Entries after “also recorded” stand apart in the source; their conditions may differ.
Biological target: WT BTK (Homo sapiens, UniProt Q06187)
Assay: In vitro dialysis assay (irreversibility assay), WT BTK
Format: biochemical
Conditions: for Conclusion (WT BTK): reversible or irreversible inhibition after 24 hr dialysis; for Recovery after 24 h dialysis: 0.003 mM compound pre-incubated with 2 nM BTK for 2 hr, dialyzed 24 hr against buffer with 40 mM ATP, BTK activity vs non-dialyzed samples
Experimental: The compound-enzyme complex was dialyzed against the same buffer supplemented with 40 mM ATP for 24 hr. Cumulative dialysis factor >160,000×. After dialysis, the BTK activity was measured in the presence 40 mM ATP and 1 mM substrate peptide and compared to that in non-dialyzed samples. Assay buffer: 100 mM HEPES, pH7.5; 0.1% BSA, 0.01% Triton-X 100; 5 mM MgCl2; 1 mM DTT.

WT BTK, sequence (Q06187 whole entry): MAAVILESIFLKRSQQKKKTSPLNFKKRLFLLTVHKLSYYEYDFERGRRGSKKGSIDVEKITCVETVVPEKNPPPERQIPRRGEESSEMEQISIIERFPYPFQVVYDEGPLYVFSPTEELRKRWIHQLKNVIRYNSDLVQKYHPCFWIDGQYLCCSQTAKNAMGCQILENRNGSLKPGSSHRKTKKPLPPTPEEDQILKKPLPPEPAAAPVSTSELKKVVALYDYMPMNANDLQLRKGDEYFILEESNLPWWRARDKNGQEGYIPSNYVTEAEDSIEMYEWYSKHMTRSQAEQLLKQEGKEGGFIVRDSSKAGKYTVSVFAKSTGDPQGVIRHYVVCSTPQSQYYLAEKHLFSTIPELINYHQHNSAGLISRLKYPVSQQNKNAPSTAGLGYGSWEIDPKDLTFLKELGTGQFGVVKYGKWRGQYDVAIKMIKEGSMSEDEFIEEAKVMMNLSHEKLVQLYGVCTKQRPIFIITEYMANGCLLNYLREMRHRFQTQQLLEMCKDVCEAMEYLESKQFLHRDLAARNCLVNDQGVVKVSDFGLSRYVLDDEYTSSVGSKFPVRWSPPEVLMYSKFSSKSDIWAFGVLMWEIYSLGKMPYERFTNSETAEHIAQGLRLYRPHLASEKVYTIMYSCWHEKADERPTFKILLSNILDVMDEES

Row | Conclusion (WT BTK) | Recovery after 24 h dialysis [%] | Structure (SMILES)
1 | Irreversible/covalent inhibition | – | C=CC(=O)Nc1cc(Nc2nc(-c3ccnc(N4CCn5c(cc6c5CC(C)(C)C6)C4=O)c3C)cn(C)c2=O)ccc1N1CCC(N2CCOCC2)CC1C [Example 17, N-(5-[[6-(2-[4,4-dimethyl-9-oxo-1,10-diazatricyclo[6.4.0.0^[2,6]]dodeca-2(6),7-dien-10-yl]-3-methylpyridin-4-yl)-4-methyl-3-oxopyrazin-2-yl]amino]-2-[(2S)-2-methyl-4-(morpholin-4-yl)piperidin-1-yl]phenyl)prop-2-enamide]
2 | Irreversible/covalent inhibition | ~1 | C=CC(=O)Nc1cc(Nc2nc(-c3ccnc(N4CCn5c(cc6c5CC(C)(C)C6)C4=O)c3C)cn(C)c2=O)ccc1N1CCC(N2CCOCC2)CC1.Cl [Example 18, N-(5-[[6-(2-[4,4-dimethyl-9-oxo-1,10-diazatricyclo[6.4.0.0^[2,6]]dodeca-2(6),7-dien-10-yl]-3-methylpyridin-4-yl)-4-methyl-3-oxopyrazin-2-yl]amino]-2-[4-(morpholin-4-yl)piperidin-1-yl]phenyl)prop-2-enamide hydrochloride]
3 | Irreversible/covalent inhibition | ~1 | C=CC(=O)Nc1cc(Nc2nc(-c3ccnc(N4CCn5c(cc6c5CC(C)(C)C6)C4=O)c3CO)cn(C)c2=O)ccc1N1CCC(N2CCC(F)(F)CC2)CC1 [Example 20, N-(2-[4,4-difluoro-[1,4′-bipiperidin]-1′-yl]-5-[[6-(2-[4,4-dimethyl-9-oxo-1,10-diazatricyclo[6.4.0.0^[2,6]]dodeca-2(6),7-dien-10-yl]-3-(hydroxymethyl)pyridin-4-yl)-4-methyl-3-oxopyrazin-2-yl]amino]phenyl)prop-2-enamide]
4 | Irreversible/covalent inhibition | ~1 | C=CC(=O)Nc1cc(Nc2nc(-c3ccnc(N4CCn5c(cc6c5CC(C)(C)C6)C4=O)c3CO)cn(C)c2=O)ccc1N1CCC(N2CCN(C)CC2)CC1 [Example 21, N-(5-[[6-(2-[4,4-dimethyl-9-oxo-1,10-diazatricyclo[6.4.0.0^[2,6]]dodeca-2(6),7-dien-10-yl]-3-(hydroxymethyl)pyridin-4-yl)-4-methyl-3-oxopyrazin-2-yl]amino]-2-[4-(4-methylpiperazin-1-yl)piperidin-1-yl]phenyl)prop-2-enamide]
5 | Irreversible/covalent inhibition | ~1 | C=CC(=O)Nc1cc(Nc2nc(-c3ccnc(N4CCn5c(cc6c5CC(C)(C)C6)C4=O)c3CO)cn(C)c2=O)ccc1N1CCN(C2CCC(F)(F)CC2)C[C@@H]1C [Example 23, N-[2-[(2S)-4-(4,4-difluorocyclohexyl)-2-methylpiperazin-1-yl]-5-[[6-(2-[4,4-dimethyl-9-oxo-1,10-diazatricyclo[6.4.0.0^[2,6]]dodeca-2(6),7-dien-10-yl]-3-(hydroxymethyl)pyridin-4-yl)-4-methyl-3-oxopyrazin-2-yl]amino]phenyl]prop-2-enamide]
6 | Irreversible/covalent inhibition | ~1 | C=CC(=O)Nc1cc(Nc2nc(-c3ccnc(N4CCCn5c(cc6c5CC(C)(C)C6)C4=O)c3CO)cn(C)c2=O)ccc1N1CCN(C2COC2)C[C@@H]1C [Example 29, N-(5-[[6-(2-[4,4-dimethyl-9-oxo-1,10-diazatricyclo[6.5.0.0^[2,6]]trideca-2(6),7-dien-10-yl]-3-(hydroxymethyl)pyridin-4-yl)-4-methyl-3-oxopyrazin-2-yl]amino]-2-[(2S)-2-methyl-4-(oxetan-3-yl)piperazin-1-yl]phenyl)prop-2-enamide]
7 | Irreversible/covalent inhibition | ~1 | C=CC(=O)Nc1cc(Nc2nc(-c3ccnc(N4CCc5c(sc6c5CCC6(C)C)C4=O)c3CO)cn(C)c2=O)ccc1N1CCN(C2COC2)C[C@@H]1C [Example 35, N-(5-[[6-(2-[5,5-dimethyl-9-oxo-7-thia-10-azatricyclo[6.4.0.0^[2,6]]dodeca-1(8),2(6)-dien-10-yl]-3-(hydroxymethyl)pyridin-4-yl)-4-methyl-3-oxopyrazin-2-yl]amino]-2-[(2S)-2-methyl-4-(oxetan-3-yl)piperazin-1-yl]phenyl)prop-2-enamide]
8 | Irreversible/covalent inhibition | ~1 | C=CC(=O)Nc1cc(Nc2nc(-c3ccnc(N4CCc5c(sc6c5CCCC6)C4=O)c3CO)cn(C)c2=O)ccc1N1CCN(C2COC2)C[C@@H]1C [Example 36, N-[5-([6-[3-(hydroxymethyl)-2-[6-oxo-8-thia-5-azatricyclo[7.4.0.0 ^[2,7]]trideca-1(9),2(7)-dien-5-yl]pyridin-4-yl]-4-methyl-3-oxopyrazin-2-yl]amino)-2-[(2S)-2-methyl-4-(oxetan-3-yl)piperazin-1-yl]phenyl]prop-2-enamide]
9 | Irreversible/covalent inhibition | ~1 | C=CC(=O)Nc1cc(Nc2nc(-c3ccnc(N4CCCn5c(cc6c5CC(C)(C)C6)C4=O)c3CO)cn(C)c2=O)ccc1N1CCN([C@H]2C[C@@H](C)O[C@@H](C)C2)C[C@@H]1C [Example 38, N-(5-[[6-(2-[4,4-dimethyl-9-oxo-1,10-diazatricyclo[6.5.0.0^[2,6]]trideca-2(6),7-dien-10-yl]-3-(hydroxymethyl)pyridin-4-yl)-4-methyl-3-oxopyrazin-2-yl]amino]-2-[(2S)-2-methyl-4-[(2R,4r,6S)-2,6-dimethyloxan-4-yl]piperazin-1-yl]phenyl)prop-2-enamide]

Row | Structure (SMILES) | Conclusion (WT BTK) | Recovery after 24 h dialysis [%]
10 | C=CC(=O)Nc1cc(Nc2nc(-c3ccnc(N4CCn5c(cc6c5CC(C)(C)C6)C4=O)c3CO)cn(C)c2=O)ccc1N1CCN(C2COC2)C[C@@H]1C [Example 3, (S)—N-(5-((6-(2-(7,7-dimethyl-1-oxo-1,3,4,6,7,8-hexahydro-2H-cyclopenta[4,5]pyrrolo[1,2-a]pyrazin-2-yl)-3-(hydroxymethyl)pyridin-4-yl)-4-methyl-3-oxo-3,4-dihydropyrazin-2-yl)amino)-2-(2-methyl-4-(oxetan-3-yl)piperazin-1-yl)phenyl)acrylamide] | irreversible inhibitors; also recorded: Irreversible/covalent inhibition | –
11 | C=CC(=O)Nc1cc(Nc2nc(-c3ccnc(N4CCn5c(cc6c5CC(C)(C)C6)C4=O)c3C)cn(C)c2=O)ccc1N1CCN(C2COC2)C[C@@H]1C [Example 11, (S)—N-(5-((6-(2-(7,7-dimethyl-1-oxo-1,3,4,6,7,8-hexahydro-2H-cyclopenta[4,5]pyrrolo[1,2-a]pyrazin-2-yl)-3-methylpyridin-4-yl)-4-methyl-3-oxo-3,4-dihydropyrazin-2-yl)amino)-2-(2-methyl-4-(oxetan-3-yl)piperazin-1-yl)phenyl)acrylamide] | irreversible inhibitors; also recorded: Irreversible/covalent inhibition | –
12 | C=CC(=O)Nc1cc(Nc2nc(-c3ccnc(N4CCn5c(cc6c5CC(C)(C)C6)C4=O)c3CO)cn(C)c2=O)ccc1N1CCC(N2CCOCC2)CC1C (centres unmarked) [Example 12, N-(5-((6-(2-(7,7-dimethyl-1-oxo-1,3,4,6,7,8-hexahydro-2H-cyclopenta[4,5]pyrrolo[1,2-a]pyrazin-2-yl)-3-(hydroxymethyl)pyridin-4-yl)-4-methyl-3-oxo-3,4-dihydropyrazin-2-yl)amino)-2-(2-methyl-4-morpholinopiperidin-1-yl)phenyl)acrylamide] | irreversible inhibitors; also recorded: Irreversible/covalent inhibition | –
